# US5912270A, “Anti-inflammatory compounds” (SmithKline Beecham Corporation, priority 1996, dated 1999)
# Where a name gives a salt, the structure may show the parent alone. Read-outs that look alike come from different tables or passages of the source.
# Columns and labels:
# CoA-IT = experiment: Assay (b): microsomal CoA-IT activity assay; type: biochemical, human; settings: U937 microsomes
# Excerpt: The following is a method to measure CoA-IT activity and the effects of compounds on CoA-IT activity. The assay is based upon mixing cellular material containing CoA-IT activity with a stable lyso phospholipid such as […] and measuring the production of phospholipid product such as […] occurring in the absence of added CoA or CoA-fatty acids.
# Any inflammatory cell that contains high levels of CoA-IT activity can be used, such as neutrophils, macrophages or cell lines such as U937 cells. […] Cells were grown without differentiation (basal state) by any agent, such as dimethyl sulfoxide. As used herein, "inflammatory cells" include, but are not limited to neutrophils, macrophages, monocytes, lymphocytes, eosinophils, basophils, and mast cells.
# Microsomes were prepared using standard techniques. In this case, cells were washed with a buffer of 250 mM sucrose, 10 mM Tris, 1 mM EGTA, 1 mM MgCl2, pH 7.4 and ruptured by N2 cavitation (750 psi, 10 minutes). The ruptured cells were centrifuged 1000×g, 5 minutes. The resulting supernatant was centrifuged at 20,000×g,~20 minutes. Microsomes were prepared from this supernatant by centrifugation at 100,000×g, 60 minutes. The resulting pellet was washed once with assay buffer (150 mM NaCl, 10 mM Na2 KPO4, 1 mM EGTA, pH 7.4), recentrifuged and the pellet resuspended in assay buffer (4-20 mg protein/ml) and was stored at -80° C. until assayed.
# CoA-IT activity was measured in 1.5 ml centrifuge tubes in a total volume of 100 ul. Microsomes were diluted in assay buffer to the desired protein concentration (6-20 ug/tube). The reaction was initiated by addition of [3H ]1-alkyl-2-lyso-sn-glycero-3-phosphocholine (GPC) (~0.1 uCi/tube) and 1 μM final cold 1-alkyl-2-lyso-GPC in assay buffer with 0.25 mg/ml fatty acid-poor bovine serumalbumin (BSA) (Calbiochem, La Jolla, Calif.). [3H]1-2-alkyl-2-lyso-GPC, approximately 50 Ci/mmol, was from NEN-Dupont (Boston, Mass.) and cold 1-alkyl-2-lyso-GPC was from Biomol (Plymouth Meeting, Pa). Microsomes were pretreated with desired agents for the desired time (10 minutes) before the addition of [3H]1-alkyl-2-lyso-GPC. The reaction was run for the desired time (10 minutes) at 37° C. The reaction was stopped and the lipids extracted by addition of 100 ul of chloroform:methanol (1:2, v/v) followed by 100 ul of chloroform and 100 ul of 1M KCI. The samples were vortexed and centrifuged at high speed in a microfuge for 2-3 minutes. An aliquot of the chloroform-extracted materials were separated, usually by TLC in chloroform/methanol/acetic acid/water (50:25:8:4, v/v), visualized by radioscanning (Bioscan) and the product, [3H] 1-alkyl-2-acyl-GPC, was scraped and quantified by liquid scintillation spectroscopy. […] Other methods can be used to separate substrate from product, including but not limited to column chromatography, affinity chromatography and post reaction derivitization.
# [1] = test system: Arachidonic acid induced ear inflammation; experiment: Assay (h): Arachidonic acid induced ear inflammation assay; type: in vivo, mouse; settings: for AA % change in edema / change in MPO for AA: topical, doses of 0.2, 0.1 and 0.3 for dexamethasone, scalaradial, WY 50,295 respectively; for activity in the AA ear model: @ 1 mg
# Experimental: (§1) Male Balb/c inbred mice were obtained from Charle River Breeding Laboratories (Kingston, N.Y.). Within a single experiment mice (22-25 g) were age-matched. These in vivo experiments typically involved use of 5-6 animals/group.
# Arachidonic acid is dissolved in acetone ([…]) to the left ear of BALB/c male mice. The thickness of both ears was measured with a constant pressure thickness guage 1 hour after treatment and the data expressed as the change in thickness between treated and untreated ears. Test compounds or vehicle are given at the time of AA applciation. The inflammatory cell infiltration is measured by MPO activity as described above in the TPA ear edema assay. After the edema measurements are made, the inflamed ears are removed and assayed for MPO activity.
# [2] = test system: TPA-induced Mouse Ear Inflammation; experiment: Assay (g): TPA-induced Mouse Ear Inflammation (edema and MPO); type: in vivo; settings: for TPA % change in edema / change in MPO for TPA model / MPO ED50 / edema ED50: topical; for TPA % change in edema / change in MPO for TPA model: doses of 0.2, 0.1 and 0.3 for dexamethasone, scalaradial, WY 50,295 respectively; for MPO ED50 / edema ED50: TPA ear model
# Experimental: as §1
# TPA (12-0-tetradecanoylphorbol 13-acetate) (Sigma Chemical Company) in acetone (4 mg/20 ml) was applied to the inner and outer surfaces of the left ear of BALB/c male mice. The thickness of both ears was then measured with a dial micrometer (Mitutoyo, Japan) at both 2 and 4 hours after treatment, and the data expressed as the change in thickness (10^-3 cm) between treated and untreated ears. […] After measuring the edema, the inflammed left ears were removed and stored at -70° C. until they were assayed for MPO (myeloperoxidase) activity where appropriate.
# On the day of the assay, partially thawed ear tissues were minced and then homogenized (10% w/v) with a Tissumizer homogenizer (Tekmar Co.) in 50 mM phosphate buffer (pH 6) containing 0.5% HTAB. The tissue homogenates were taken through three cycles of freeze-thaw, followed by brief sonication (10 sec). The method of Bradley et al. was used with modifications as described. […] Supernatant MPO activity was quantified kinetically (change in absorbance measured over 3 min, sampled at 15-sec intervals) using a Beckman DU-7 spectrophotometer and a Kinetics Analysis package (Beckman Instruments, Inc.). One unit of MPO activity is defined as that degrading one micromole of peroxide per minute at 25° C.
# Statistical analysis was done using Student's "t" test.
# human Monocytes = experiment: Assay (f): stimulated eicosanoid release by human monocytes; type: cell-based; settings: Monocyte
# Experimental: Human Monocyte Isolation. Leukocyte-rich leukopaks obtained from Biological Specialties (Lansdale, Pa.) were collected from male volunteers who were not talking antiinflammatory drugs. Leukopaks were centrifuged (90×g for 15 min) twice to remove the platelet-rich plasma. The cell pellet was washed by centrifugation and resuspended in HBSS without Ca^2+ or Mg^2+. Histopaque 1077 was layered under the cell suspension and centrifuged at 400×g for 30 min to obtain the buffy coat. The interfacial buffy coat, containing monocytes and lymphocytes, was removed and saved. The buffy coat was washed twice with HBSS without Ca^2+ or Mg^2+ by centrifugation. […]
# Measurement of Stimuli-Induced Eicosanoid Release. […] (A23187, 1 μM,(15 min). The reaction was terminated by reduction of pH through addition of citric acid and centrifugation (10 min, 400×g, 4° C.). Cell viability was monitored before and after experiments using trypan blue exclusion. The cell-free media was decanted and stored at -70° C. until analyzed. Prostaglandin E2 and LTC4 were directly measured in cell-free media using enzyme immunoassay (EIA) kits purchased from Caymen Chemical Co. (Ann Arbor, Mich.). Sample or standard dilutions were made with appropriate media and analyzed in triplicate. Results were obtained by extrapolation from a standard curve prepared in the media and expressed as pg or ng/ml of sample.
smiles,measurement,setting,value
"O=S1(=O)CCn2c1nc(-c1ccc(F)cc1)c2-c1ccncc1 [6-(4'-Fluorophenyl)-5-(4-pyridyl)2,3-dihydroimidzo-[2,1-b]thiazole-dioxide]",effect on CoA-IT activity,CoA-IT; at concentrations up to 100 μM,no effect
"CC(C(=O)O)c1ccc2cc(OCc3ccc4ccccc4n3)ccc2c1 (centres unmarked) [WY 50,295]",AA % change in edema,[1],-50%
same,change in MPO for AA,[1],-90
same,TPA % change in edema,[2],-18%
same,change in MPO for TPA model,[2],-36
CN(C)CCC=C1c2ccccc2COc2ccccc21 [Doxepine],effect on CoA-IT activity,CoA-IT; at concentrations up to 100 μM,did not inhibit
COc1cccc2c1cc([N+](=O)[O-])c1c(C(=O)O)cc3c(c12)OCO3 [aristolochic acid],effect on CoA-IT activity,CoA-IT; at concentrations up to 500 μM,no effect
Cc1cc(C(C)(C)C)c(O)c(C(C)(C)C)c1 [BHT],effect on CoA-IT activity,CoA-IT; at concentrations up to 100 μM,no effect
"CCC(C)(C)c1ccc(Oc2ccc(C(F)(F)F)cc2NC(=O)Nc2ccc(Cl)c(C(F)(F)F)c2)c(S(=O)(=O)O)c1 [Example 3, 2-[2-[3-(4-Chloro-3-trifluoromethylphenyl)ureido]-4-trifluoromethylphenoxy]-5-(1,1-dimethylpropyl)benzenesulfonic acid, sodium salt]",activity in the AA ear model,[1],-22
same,MPO ED50,[2],0.36 mg/ear
same,edema ED50,[2],0.32 mg/ear
COc1ccc2cc([C@H](C)C(=O)O)ccc2c1 [naproxen],effect on CoA-IT activity,CoA-IT; at concentrations up to 100 μM,no effect
"Fc1ccc(-c2nc3n(c2-c2ccncc2)CCS3)cc1 [6-(4'-Fluorophenyl)-5-(4pyridyl)-2,3-dihydroimidzo-[2,1-b]thiazole]",effect on CoA-IT activity,CoA-IT; at concentrations up to 100 μM,no effect
C[C@@H]1C[C@H]2[C@@H]3CCC4=CC(=O)C=C[C@]4(C)[C@@]3(F)[C@@H](O)C[C@]2(C)[C@@]1(O)C(=O)CO [dexamethasone],AA % change in edema,[1],-10%
same,change in MPO for AA,[1],0
same,TPA % change in edema,[2],-50%
same,change in MPO for TPA model,[2],-54
COc1ccc2c(c1)c(CC(=O)O)c(C)n2C(=O)c1ccc(Cl)cc1 [indomethicin],effect on CoA-IT activity,CoA-IT; at concentrations up to 100 μM,no effect
CCN(CC)CCCC(C)Nc1c2ccc(Cl)cc2nc2ccc(OC)cc12 (centres unmarked) [quinacrine],effect on CoA-IT activity,CoA-IT; at concentrations up to 500 μM,no effect
CC(=O)O[C@H]1C[C@@H]2[C@@]3(C)CCCC(C)(C)[C@@H]3CC[C@@]2(C)[C@@H]2CC=C(C=O)[C@H](C=O)[C@@]12C [scalaradial],AA % change in edema,[1],-11%
same,change in MPO for AA,[1],-33
same,TPA % change in edema,[2],-46%
same,change in MPO for TPA model,[2],-65
"CCC(C)(C)c1ccc(Oc2ccc(C(F)(F)F)cc2NC(=O)Nc2cc(C(F)(F)F)cc(C(F)(F)F)c2)c(S(=O)(=O)O)c1 [Example 2, 2-[2-[3-[3,5-Bis(trifluoromethyl)phenyl]ureido]-4-trifluoromethylphenoxy]5-(1,1-dimethylpropyl)benzenesulfonic acid, sodium salt]",activity in the AA ear model,[1],-25
same,MPO ED50,[2],0.25 mg/ear
same,edema ED50,[2],0.87 mg/ear
same,inhibition in these animal models,[2]; mouse ear inflammation models (TPA and AA),positive inhibition
same,IC50,"human Monocytes; LTC4 release, A23187, read-out: LTC4 (as an IC50)",1 µM
same,IC50,"human Monocytes; PGE2 release, A23187, read-out: PGE2 (as an IC50)",> 10 µM
